Reference: US11925624B2, “Methods of administering anti-fibrotic therapy” (GENENTECH, INC., priority 2016, dated 2024)
Values joined by “and” are separate entries in the source; they are usually repeats but may differ in a detail not shown here. Equal entries are not always repeated. “Also recorded” adds a separate entry of the source. Where two headings read alike, the source gives them in different places.

Assay: Phase 1 single ascending dose (Part A) pharmacokinetics, fasted state
Format: in vivo, human
Details: for % AUCextrap: arithmetic mean; for AUC(0-inf) / AUC(0-t) / Cmax / Vd/F / half-life / Tmax / CL renal: human; for AUC(0-inf) / AUC(0-t) / Cmax / Vd/F / half-life / Tmax: plasma
Description: A Phase 1, randomized, blinded, placebo-controlled safety, tolerability, and pharmacokinetic study of Compound I in 80 healthy adult subjects was conducted.
This study was a randomized, blinded, placebo-controlled, ascending-dose study to evaluate the safety, tolerability, and pharmacokinetic (PK) of single (Part A) and multiple (Part B) doses of Compound I in healthy subjects. In addition, the effects of a standard high-fat breakfast, standard low-fat breakfast, and pretreatment and co-administration of a proton pump inhibitor (PPI) on the tolerability and PK of a single dose of Compound I were investigated in 2 groups in Part A. All subjects received their full dose of Compound I, administered as the appropriate number of either 25 or 200 mg tablets. The high fat breakfast comprised the following: total energy: 895 kcal; total fat: 61 g; total protein: 41 g; total carbohydrate: 46 g. The low fat breakfast comprised the following: total energy: 611 kcal; total fat: 14.7 g; total protein: 20.3 g; total carbohydrate: 106.3 g.
In Part A, 56 subjects were studied in 6 groups (Groups A1 to A6) with each of Groups A1, A2, A3, A5, and A6 composed of 8 subjects (6 received Compound I, 2 received placebo) and Group A4 was composed of 16 subjects (12 received Compound I, 4 received placebo). The first dose group (A1) included a sentinel cohort of 2 subjects (1 subject received Compound I and 1 subject received placebo) dosed 48 hours in advance of the remainder of the group.
All subjects in Groups A1 through A6 participated in Treatment Period 1 and received the fasted treatment regimen. In Treatment Period 1, subjects resided at the Clinical Research Unit (CRU) from Day −1 (the day before dosing) to Day 4 (72 hours post-dose). In Treatment Period 1, all doses were administered on the morning of Day 1, after an overnight fast of at least 8 hours. In Groups A1, A2, A3, and A6, each subject received only a single dose of Compound I (25 mg in Group A1, 75 mg in Group A2, 200 mg in Group A3, and 1600 mg in Group A6) or placebo (per the randomization schedule) during the study.
In Part A, all doses in Treatment Period 1 were administered after an overnight fast of at least 8 hours. For the A4 cohort, in Treatment Periods 2 and 3, doses were administered 30 minutes after starting and approximately 10 minutes after completing a high- or low-fat breakfast. In Treatment Period 4, the dose was administered after an overnight fast and following administration of a PPI (PPI was comprised of 3 doses of rabeprazole 20 mg, starting on Day −2 and with the final dose 2 hours before Compound I administration on Day 1). For Group A5, doses during Treatment Period 2 were administered 30 minutes after starting and approximately 10 minutes after completing a low-fat standard breakfast on the morning of Day 1, and doses during Treatment Period 3 were administered on Day 1 after a low-fat meal and following administration of a PPI for 3 days (given as 3 QD doses, with the final PPI dose at 2 hours prior to study drug administration on Day 1).

[1] = 75 mg vs 25 mg (3-fold increase in dose)
[2] = 800-mg dose level (32.0-fold increase in dose)

SMILES: Cn1cc(-c2cn(-c3ccc(OC(F)(F)F)cc3)c(=O)c3ncn(C)c23)cn1 [Compound I]
- AUC0-t (norm) (25 mg single dose (A1)): 13400 hr*ng/mL/(mg/kg)
- AUC0-∞ (norm) (25 mg single dose (A1)): 13600 hr*ng/mL/(mg/kg)
- Ae0-24 (25 mg single dose (A1)): 19.2 mg
- CL/F (25 mg single dose (A1)): 90.5 mL/min
- CL/F(norm) (25 mg single dose (A1)): 1.23 (mL/min)/kg
- Cmax (norm) (25 mg single dose (A1)): 2700 ng/mL/(mg/kg)
- fe0-24 (25 mg single dose (A1)): 76.9%
- t1/2 (25 mg single dose (A1)): 3.61 h
- λZ (25 mg single dose (A1)): 0.192 h⁻¹
- % AUCextrap (25 mg single dose (A1)): 1.25%
- AUC0-t (norm) (75 mg single dose (A2)): 12600 hr*ng/mL/(mg/kg)
- AUC0-∞ (norm) (75 mg single dose (A2)): 12600 hr*ng/mL/(mg/kg)
- Ae0-24 (75 mg single dose (A2)): 54.8 mg
- CL/F (75 mg single dose (A2)): 96.0 mL/min
- CL/F(norm) (75 mg single dose (A2)): 1.32 (mL/min)/kg
- Cmax (norm) (75 mg single dose (A2)): 2180 ng/mL/(mg/kg)
- fe0-24 (75 mg single dose (A2)): 73.0%
- t1/2 (75 mg single dose (A2)): 5.02 h
- λZ (75 mg single dose (A2)): 0.138 h⁻¹
- % AUCextrap (75 mg single dose (A2)): 0.486%
- Fold increase in AUC0-t [1]: 2.9 fold
- Fold increase in AUC0-∞ [1]: 2.8 fold
- Fold increase in Cmax [1]: 2.5 fold
- AUC0-t (norm) (200 mg single dose (A3)): 12000 hr*ng/mL/(mg/kg)
- AUC0-∞ (norm) (200 mg single dose (A3)): 12100 hr*ng/mL/(mg/kg)
- Ae0-24 (200 mg single dose (A3)): 105 mg
- CL/F (200 mg single dose (A3)): 102 mL/min
- CL/F(norm) (200 mg single dose (A3)): 1.38 (mL/min)/kg
- Cmax (norm) (200 mg single dose (A3)): 1140 ng/mL/(mg/kg)
- fe0-24 (200 mg single dose (A3)): 52.5%
- λZ (200 mg single dose (A3)): 0.0602 h⁻¹
- % AUCextrap (200 mg single dose (A3)): 0.969%
- AUC0-t (norm) (400 mg single dose (A4)): 9420 hr*ng/mL/(mg/kg)
- AUC0-∞ (norm) (400 mg single dose (A4)): 9650 hr*ng/mL/(mg/kg)
- Ae0-24 (400 mg single dose (A4)): 133 mg
- CL/F (400 mg single dose (A4)): 121 mL/min
- CL/F(norm) (400 mg single dose (A4)): 1.73 (mL/min)/kg
- Cmax (norm) (400 mg single dose (A4)): 790 ng/mL/(mg/kg)
- fe0-24 (400 mg single dose (A4)): 33.3%
- λZ (400 mg single dose (A4)): 0.0594 h⁻¹
- % AUCextrap (400 mg single dose (A4)): 2.37%
- AUC0-t (norm) (800 mg single dose (A5)): 6700 hr*ng/mL/(mg/kg)
- AUC0-∞ (norm) (800 mg single dose (A5)): 7080 hr*ng/mL/(mg/kg)
- Ae0-24 (800 mg single dose (A5)): 172 mg
- CL/F (800 mg single dose (A5)): 169 mL/min
- CL/F(norm) (800 mg single dose (A5)): 2.35 (mL/min)/kg
- Cmax (norm) (800 mg single dose (A5)): 532 ng/mL/(mg/kg)
- fe0-24 (800 mg single dose (A5)): 21.5%
- λZ (800 mg single dose (A5)): 0.0433 h⁻¹
- % AUCextrap (800 mg single dose (A5)): 5.17%
- Increase in AUC and Cmax (1600 mg dose compared to 800 mg dose): no significant increase
- AUC0-t (norm) (1600 mg single dose (A6)): 3090 hr*ng/mL/(mg/kg)
- AUC0-∞ (norm) (1600 mg single dose (A6)): 3740 hr*ng/mL/(mg/kg)
- Ae0-24 (1600 mg single dose (A6)): 145 mg
- CL/F (1600 mg single dose (A6)): 307 mL/min
- CL/F(norm) (1600 mg single dose (A6)): 4.46 (mL/min)/kg
- Cmax (norm) (1600 mg single dose (A6)): 235 ng/mL/(mg/kg)
- fe0-24 (1600 mg single dose (A6)): 9.1% and 9.09%
- λZ (1600 mg single dose (A6)): 0.0351 h⁻¹
- % AUCextrap (1600 mg single dose (A6)): 6.57%
- Dose proportionality of systemic exposure (Cmax and AUC) (200-mg dose and greater): less than proportional
- Fold increase in AUC0-t [2]: 16.4 fold
- Fold increase in AUC0-∞ [2]: 17.1 fold
- Fold increase in Cmax [2]: 6.5 fold
- Dose proportionality of systemic exposure (Cmax and AUC) (between 25 and 75 mg): dose-proportional; also recorded: consistent with linear PK
- AUC(0-inf) (oral, 25 mg single dose (A1)): 4600 ng·h/mL
- AUC(0-t) (oral, 25 mg single dose (A1)): 4550 ng·h/mL
- Cmax (oral, 25 mg single dose (A1)): 913 ng/mL
- Vd/F (oral, 25 mg single dose (A1), read-out: Vz/F): 28.3 L
- Vd/F (oral, 25 mg single dose (A1), read-out: Vz/F(norm)): 0.384 L/kg
- half-life (oral, 25 mg, 25 mg single dose (A1)): 3.6 h
- Tmax (oral, 25 mg, 25 mg single dose (A1), median, read-out: tmax): 1.5 h
- AUC(0-inf) (oral, 75 mg single dose (A2)): 13000 ng·h/mL
- AUC(0-t) (oral, 75 mg single dose (A2)): 13000 ng·h/mL
- Cmax (oral, 75 mg single dose (A2)): 2250 ng/mL
- Vd/F (oral, 75 mg single dose (A2), read-out: Vz/F): 41.7 L
- Vd/F (oral, 75 mg single dose (A2), read-out: Vz/F(norm)): 0.574 L/kg
- half-life (oral, 75 mg, 75 mg single dose (A2)): 5 h
- Tmax (oral, 75 mg, 75 mg single dose (A2), median, read-out: tmax): 1.25 h
- Tmax (oral, 75 mg, 25 and 75 mg doses, read-out: tmax, latest individual value): ≤ 2.5 h
- AUC(0-inf) (oral, 200 mg single dose (A3)): 32600 ng·h/mL
- AUC(0-t) (oral, 200 mg single dose (A3)): 32300 ng·h/mL
- Cmax (oral, 200 mg single dose (A3)): 3060 ng/mL
- Vd/F (oral, 200 mg single dose (A3), read-out: Vz/F): 102 L
- Vd/F (oral, 200 mg single dose (A3), read-out: Vz/F(norm)): 1.37 L/kg
- half-life (oral, 200 mg, 200 mg single dose (A3)): 10.2 h
- Tmax (oral, 200 mg, 200 mg single dose (A3), median, read-out: tmax): 1.75 h
- AUC(0-inf) (oral, 400 mg single dose (A4)): 55100 ng·h/mL
- AUC(0-t) (oral, 400 mg single dose (A4)): 53800 ng·h/mL
- Cmax (oral, 400 mg single dose (A4)): 4510 ng/mL
- Vd/F (oral, 400 mg single dose (A4), read-out: Vz/F): 122 L
- Vd/F (oral, 400 mg single dose (A4), read-out: Vz/F(norm)): 1.74 L/kg
- half-life (oral, 400 mg, 400 mg single dose (A4)): 11.7 h
- Tmax (oral, 400 mg, 400 mg single dose (A4), median, read-out: tmax): 2.5 h
- AUC(0-inf) (oral, 800 mg single dose (A5)): 78700 ng·h/mL
- AUC(0-t) (oral, 800 mg single dose (A5)): 74500 ng·h/mL
- Cmax (oral, 800 mg single dose (A5)): 5910 ng/mL
- Vd/F (oral, 800 mg single dose (A5), read-out: Vz/F): 234 L
- Vd/F (oral, 800 mg single dose (A5), read-out: Vz/F(norm)): 3.26 L/kg
- half-life (oral, 800 mg, 800 mg single dose (A5)): 11.3 h
- Tmax (oral, 800 mg, 800 mg single dose (A5), median, read-out: tmax): 1.8 h
- AUC(0-inf) (oral, 1600 mg single dose (A6)): 86900 ng·h/mL
- AUC(0-t) (oral, 1600 mg single dose (A6)): 73600 ng·h/mL
- Cmax (oral, 1600 mg single dose (A6)): 5580 ng/mL
- Vd/F (oral, 1600 mg single dose (A6), read-out: Vz/F): 525 L
- Vd/F (oral, 1600 mg single dose (A6), read-out: Vz/F(norm)): 7.62 L/kg
- half-life (oral, 1600 mg, 1600 mg single dose (A6)): 19.8 h
- Tmax (oral, 1600 mg, 1600 mg single dose (A6), median, read-out: tmax): 2 h
- Tmax (oral, higher dose levels (200 to 1600 mg), read-out: tmax, latest individual value): ≤ 6 h
- Tmax (po, single oral doses 25 to 1600 mg, read-out: Median tmax, range across all doses): 1.3 to 2.5 h
- CL renal (urine and plasma, oral, 400 mg single dose (A4)): 49.7 mL/min
- CL renal (urine and plasma, oral, 800 mg single dose (A5)): 48.5 mL/min
- CL renal (urine and plasma, oral, 1600 mg single dose (A6)): 47.6 mL/min
- CL renal (urine, oral, 25 mg single dose (A1)): 70.5 mL/min
- CL renal (urine, oral, 75 mg single dose (A2)): 71.8 mL/min
- CL renal (urine, oral, 200 mg single dose (A3)): 63.5 mL/min
